Source: patent publication US9802958B2, “Tetrahydro[1,8]naphthyridine sulfonamide and related compounds for use as agonists of RORy and the treatment of disease” (Lycera Corporation, priority 2012, dated 2017)
pEC50: −log10 of the molar value.

Molecular target: T1, RORγ-LBD (Homo sapiens, UniProt P51449)
T1 construct: made in house; host or cells: SF9 insect cells, baculovirus; unpurified lysate used
T1 sequence (P51449 269-508 limits assumed): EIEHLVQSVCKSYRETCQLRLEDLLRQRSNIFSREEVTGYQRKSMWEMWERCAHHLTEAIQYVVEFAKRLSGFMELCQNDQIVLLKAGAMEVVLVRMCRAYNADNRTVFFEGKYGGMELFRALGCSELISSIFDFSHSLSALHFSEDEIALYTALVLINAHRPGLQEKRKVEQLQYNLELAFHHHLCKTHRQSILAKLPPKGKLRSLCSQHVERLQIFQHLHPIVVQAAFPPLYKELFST
Test: RORγ-Ligand Binding Domain (LBD) TR-FRET Assay
Format: biochemical
Details: for pEC50: increase of RORγ activity, recombinant HIS-tagged RORγ-LBD, biotinylated SRC1-2 LXXLL peptide
Method: Exemplary compounds from the above Examples were tested for ability to increase RORγ activity using a RORγ-Ligand Binding Domain (LBD) TR-FRET Assay. Assay procedures and results are described below.
Recombinant, HIS-tagged RORγ-LBD was expressed in SF9 cells using a baculovirus expression system. Cells were lysed and the lysate was used as a source for RORγ-LBD for the assay. A 1:80 dilution of RORγ-LBD lysate in assay buffer (25 mM HEPES pH 7.0, 100 mM NaCl, 0.01% Tween, 0.1% BSA) was prepared and 5 μL was added to each well (RORγ-LBD final concentration ˜3 nM). Control wells received lysate from SF9 cells not expressing RORγ-LBD.
Compounds to be tested were diluted to 100× final test concentration in DMSO and further diluted to 4× final test concentration using assay buffer to provide the test compound mixture. An aliquot (5 μL) of the test compound mixture was added to each well.
A 4× stock of biotinylated-LXXLL peptide from SRC1-2 (Biotin-[…]) was prepared in assay buffer and a 5 μL aliquot added to each well (450 nM final concentration). A 4× solution of europium tagged anti-HIS antibody (2 nM final concentration) and APC conjugated streptavidin (60 nM final concentration) were prepared and a 5 μL aliquot added to each well.
The final assay mixture was incubated for 4 hours to overnight, and the fluorescence signal was measured on an Envision plate reader: (Excitation filter=340 nm; APC emission=665 nm; Europium emission=615 nm; dichroic mirror=D400/D630; delay time=100 μs, integration time=200 μs).
EC50 values for test compounds were calculated from the quotient of the fluorescence signal at 665 nm divided by the fluorescence signal at 615 nm using GraphPad Prism software.

| Compound | promotion of RORγ activity (assay measuring EC50 values less than or equal to 20 μM) | pEC50 |
| --- | --- | --- |
| Cc1cccc(S(=O)(=O)N2CCOc3ccc(OC(C)c4ccccc4)nc32)c1 (stereo not drawn) [Compound 6] | No promotion of RORγ activity was detected | – |
| Cc1cccc(S(=O)(=O)N2CCOc3ccc(NC(=O)c4c(Cl)cccc4Cl)nc32)c1 [Compound 2, 2,6-Dichloro-N-[4-(toluene-3-sulfonyl)-3,4-dihydro-2H-pyrido[3,2-b][1,4]oxazin-6-yl]-benzamide] | – | ≥ 4.82 |
| O=C(Nc1ccc2c(n1)N(S(=O)(=O)c1ccc(F)cc1)CCC2)c1c(F)cccc1F [Compound 1, 2,6-Difluoro-N-(8-(4-fluorobenzenesulfonyl)-5,6,7,8-tetrahydro[1,8]naphthyridin-2-yl)benzamide] | – | ≥ 4.82 |
| Cc1cccc(S(=O)(=O)N2CCOc3ccc(OCc4ccccc4)nc32)c1 [Compound 4] | – | ≥ 4.82 |
| Cc1cccc(S(=O)(=O)N2CCOc3ccc(OCc4c(Cl)cccc4Cl)nc32)c1 [Compound 5] | – | ≥ 4.82 |
| Cc1cccc(S(=O)(=O)N2CCOc3ccc(NC(=O)C(C)c4ccccc4)nc32)c1 (stereo not drawn) [Compound 3, 2-Phenyl-N-[4-(toluene-3-sulfonyl)-3,4-dihydro-2H-pyrido[3,2-b][1,4]oxazin-6-yl]-propionamide] | – | ≥ 4.82 |
